The values that follow are results of earlier work, collected in patent publication EP0986632B1, “DELIVERY SYSTEMS” (THE PROCTER & GAMBLE COMPANY, priority 1997, dated 1998).

For the series the following is noted: 25°C; from M. L. Tobe, Adv. Inorg Bioinorg. Mech. (1983), 2, Table 1 at page 17.

For `N#CS` [NCS^-], the “base hydrolysis rates (kOH)” value was 0.0005 M⁻¹ s⁻¹. With oxalate, the “base hydrolysis rates (kOH)” value is 0.00025 M⁻¹ s⁻¹. On to `O=CO` [formate], for which the “base hydrolysis rates (kOH)” value is 0.00058 M⁻¹ s⁻¹. Regarding `CC(=O)O` [acetate], the “base hydrolysis rates (kOH)” value is 0.00096 M⁻¹ s⁻¹.
